The values that follow come from ChEMBL document CHEMBL1124715 (J Med Chem, 1990).

Bounds are passed on as bounds.

This assay deals with Serotonin 2 (5-HT2) receptor (Rattus norvegicus, UniProt P30994+P08909+P14842). The assay can be described thus: Binding affinity against 5-hydroxytryptamine 2 receptor of rat frontal cortex using [3H]ketanserin radioligand. In kind it is tissue-based.
The compound `CCCCCCCCc1cc(OC)c(CC(C)N)cc1OC.Cl` (centres undefined) had an inhibitory constant (Ki) of 3 nM. That is a single-digit nanomolar value.

The compound `COc1cc(C(C)C)c(OC)cc1CC(C)N` (centres undefined) displayed a Ki of 76 nM.

In turn, `COc1cc(CC(C)N)c(OC)cc1CCCc1ccccc1.Cl` (centres undefined) yielded a Ki of 10 nM.

In the case of `COc1cc(CC(C)N)c(OC)cc1Cl` (centres undefined), the Ki was 218 nM. Against the preceding compound, the Ki is about 22-fold higher.

In turn, `CCCOC(=O)c1cc(OC)c(CC(C)N)cc1OC` (centres undefined) came in with a Ki of 2460 nM. This Ki is about 11-fold higher than that of the compound before.

For `COc1cc(CC(C)N)c(OC)cc1N` (centres undefined), the inhibition constant Ki was found to be 26000 nM. This Ki is about 11-fold higher than that of the compound before.

In the case of `CCCCCCc1cc(OC)c(CC(C)N)cc1OC.Cl` (centres undefined), the Ki worked out at 2.5 nM. This Ki lies about 10000-fold lower than the previous one.

`CCCCOC(=O)c1cc(OC)c(CC(C)N)cc1OC` (centres undefined) had a Ki of 1530 nM.

In turn, `COc1cc(CC(C)N)c(OC)cc1I` (centres undefined) showed a Ki of 19 nM.

Turning to `COc1cc(C(=N)N)c(OC)cc1CC(C)N` (centres undefined), the inhibition constant (Ki) is recorded as 7 nM.

Turning to `CCCCc1cc(OC)c(CC(C)N)cc1OC` (centres undefined), the inhibition constant Ki is given as 58 nM.

Regarding `COc1cc(CC(C)N)c(OC)cc1C#N.Cl` (centres undefined), the Ki is reported as 2400 nM.

As to `COc1cc(C(C)(C)C)c(OC)cc1CC(C)N` (centres undefined), the inhibitory constant (Ki) is given as 19 nM. This Ki lies about 130-fold lower than the previous one.

For `COc1cc(C(=O)O)c(OC)cc1CC(C)N.Cl` (centres undefined), the Ki is recorded as over 50000 nM.

The compound `COc1cc(CC(C)N)c(OC)cc1O` (centres undefined) displayed a Ki of over 50000 nM.

Regarding `CCOc1cc(OC)c(CC(C)N)cc1OC` (centres undefined), the inhibitory constant (Ki) is recorded as 2200 nM.

Turning to `CCC(=O)c1cc(OC)c(CC(C)N)cc1OC.Cl` (centres undefined), the inhibitory constant (Ki) is listed as 735 nM. This Ki lies about 3-fold lower than the previous one.

As to `CCCNC(=O)c1cc(OC)c(CC(C)N)cc1OC` (centres undefined), the Ki is recorded as 7550 nM.

The compound `COc1cc(CC(C)N)c(OC)cc1Cc1ccccc1.Cl` (centres undefined) returned a Ki of 7 nM.
